From patent publication US20230201190A1, “USE OF MULTI[…] FOR TREATING THE RESPIRATORY DISTRESS AND CYTOKINE STORM SYNDROMES ASSOCIATED WITH C[…] INFECTIONS” (H4 ORPHAN PHARMA, priority 2020, published 2023)

What was measured:
[1] = noted by the HAS; cited from earlier work
[2] = system: TGF-β activation; conditions: alveolar macrophages from healthy volunteers, dose and exposure dependent; cited from earlier work
[3] = system: BL6 mice sensitised to OVA receiving double-stranded RNA (Poly U/Poly A); assay: Whole body plethysmography (PenH) in OVA-sensitised mice given double-stranded RNA poly(A:U); type: in vivo, mouse
Experimental: The inventors used a C57/B16J mouse model, hereafter referred to as BL6.
The protocol simulating a double-stranded RNA viral infection has been performed with 2 groups of 15 mice; these are 8 week old female mice. A control group treated only with saline served as a negative control.
BL6 mice are treated according to the protocol below. BL6 mice have been sensitised by intraperitoneal injections of […] OVA (ovalbumin) on days 0, 2 and 4. Thereafter, from day 10 to day 15, the mice have received a daily treatment with aerosolized OVA at the concentration of 20 mg/ml or saline for 20 min, using an ultrasound nebulizer (Ultra-Neb99). One hour later, the mice received […] of poly (A:U) or saline intranasally.
Group 3 which is sensitised to OVA and also receives double stranded RNA (Poly U/Poly A) according to the protocol described above but also tritoqualine at 10 mg/kg.
Each group is analysed by whole body plethysmography and the measurements are expressed in PenH. A measurement is performed every minute until 10 minutes after the introduction of the double-stranded RNA. Tritoqualine treatment is given 1 hour before the introduction of Poly U/Poly A (double-stranded RNA).
In group 3, which is the group treated with tritoqualine at a dose of 10 mg/kg (mice with viral infection after sensitisation to ovalbumin as well) there are have the following results at time 1 minute to 10 minutes, expressed in PenH units and averaged over 15 mice: […]

[4] = system: CD63 expression on basophils; assay: Flow CAST basophil activation test, anti-FcεRI antibody stimulation, CD63/CCR3 flow cytometry on whole blood; type: cell-based, human
Excerpt: To study this modulating action of CD63 by tritoqualine, the inventors have used the basophil and a modified commercial test, the Flow CAST® kit from BULHMANN Laboratories AG (Switzerland), which is a Basophil Activation Test (BAT) that can be used for the in vitro detection of basophil degranulation as well as for the study of immediate type allergic reactions and hypersensitivities.
The test is designed for the in vitro diagnosis of CD63 expression as a surface marker of activated basophils. The test is performed on whole blood; flow cytometry is used to quantify CD63 expression on the surface of activated basophils.
To evaluate degranulation via CD63 expression, the Flow CAST® kit has been partially used. This test includes an anti-IgE receptor. The inventors have only used the latter activator.
These different couplings make it possible to characterise cells separately and in particular basophils. 4 windowing zones will be distinguished according to whether or not CD63 labelling is observed and whether or not CCR3 labelling is observed • CD63+ and CCR3− which characterise non-basophilic degranulated cells. • CD63+ and CCR3+ which characterise degranulated basophils. • CD63− and CCR3− which characterise non-degranulated non-basophilic cells. • CD63− and CCR3+ which characterise non-degranulated basophils.
The degranulation protocol has been carried out using the Flow CAST. […]

[5] = Light sensitivity of the powder; type: physicochemical; conditions: white powder; degrades to Cotarnine and phthalic acid
[6] = target: T1, histidine decarboxylase (Homo sapiens, UniProt P19113); conditions: cited from earlier work
T1 sequence (P19113 1-662): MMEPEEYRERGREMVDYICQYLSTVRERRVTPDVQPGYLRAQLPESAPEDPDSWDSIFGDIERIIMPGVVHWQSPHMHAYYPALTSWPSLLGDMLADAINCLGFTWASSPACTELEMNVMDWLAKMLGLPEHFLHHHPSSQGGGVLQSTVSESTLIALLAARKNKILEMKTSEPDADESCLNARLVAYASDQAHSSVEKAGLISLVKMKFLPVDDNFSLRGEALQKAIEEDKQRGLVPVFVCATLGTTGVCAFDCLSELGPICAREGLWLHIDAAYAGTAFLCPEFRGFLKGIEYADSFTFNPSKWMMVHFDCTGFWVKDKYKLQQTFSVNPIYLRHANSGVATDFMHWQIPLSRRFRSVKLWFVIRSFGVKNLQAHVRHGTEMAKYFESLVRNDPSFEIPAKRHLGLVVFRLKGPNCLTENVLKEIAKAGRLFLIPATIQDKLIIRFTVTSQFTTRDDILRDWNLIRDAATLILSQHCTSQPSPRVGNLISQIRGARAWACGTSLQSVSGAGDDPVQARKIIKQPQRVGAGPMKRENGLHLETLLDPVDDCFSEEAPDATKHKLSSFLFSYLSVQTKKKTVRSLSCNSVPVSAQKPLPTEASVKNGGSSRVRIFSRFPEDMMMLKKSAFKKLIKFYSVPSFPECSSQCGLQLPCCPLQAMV

In the case of COC(=O)c1ccc2c(c1)NC(=O)/C2=C(\Nc1ccc(N(C)C(=O)CN2CCN(C)CC2)cc1)c1ccccc1 [OFEV, Nintedanib], the side effects [1] is given as roughly 92%.
For COCCN(CCCCc1ccc2c(n1)NCCC2)CC[C@H](Nc1ncnc2ccccc12)C(=O)O [PLN-74809], the “inhibition of TGF-β activation” value [2] is listed as “up to 70%”.
In the case of CCOc1c(N)c2c(c(OCC)c1OCC)C(C1c3c(cc4c(c3OC)OCO4)CCN1C)OC2=O (centres unmarked) [tritoqualine, 7-amino-4,5,6-triethoxy-3-(5,6,7,8-tetrahydro-4-methoxy-6-methyl-1,3-dioxolo[4,5-g]isoquinolin-5-yl)phthalide], the “difference in airway resistance between tritoqualine group and untreated group (statistical analysis)” value ([3]; 10 mg/kg, p<0.001) is reported as “highly significant”, the “airway resistance, mean of 15 mice” value ([3]; T1 (1 minute after double-stranded RNA), tritoqualine 10 mg/kg given 1 hour before) is reported as 3.05 PenH and the “airway resistance, mean of 15 mice” value ([3]; T2 (2 minutes), tritoqualine 10 mg/kg) is reported as 3.11 PenH. For the same compound, the “airway resistance, mean of 15 mice” value ([3]; T3 (3 minutes), tritoqualine 10 mg/kg) was 3.13 PenH, the “airway resistance, mean of 15 mice” value ([3]; T4 (4 minutes), tritoqualine 10 mg/kg) was 3.97 PenH and the “airway resistance, mean of 15 mice” value ([3]; T5 (5 minutes), tritoqualine 10 mg/kg) was 4.07 PenH. For the same compound, the “airway resistance, mean of 15 mice” value ([3]; T6 (6 minutes), tritoqualine 10 mg/kg) was 4.14 PenH, the “airway resistance, mean of 15 mice” value ([3]; T7 (7 minutes), tritoqualine 10 mg/kg) was 4.02 PenH and the “airway resistance, mean of 15 mice” value ([3]; T8 (8 minutes), tritoqualine 10 mg/kg) was 3.85 PenH. For the same compound, the “airway resistance, mean of 15 mice” value ([3]; T9 (9 minutes), tritoqualine 10 mg/kg) was 3.14 PenH, the “airway resistance, mean of 15 mice” value ([3]; T10 (10 minutes), tritoqualine 10 mg/kg) was 2.74 PenH and the “cells still expressing CD63” value ([4]; tritoqualine 5 μmol) was “approximately 40%”. The “cells still expressing CD63” value ([4]; tritoqualine 10 μmol) was “less than 2%”, the sensitivity to light [5] was “very sensitive to light” and the “inhibitory action on histidine decarboxylase” value [6] was “very weak”.
